Experimental data: patent US7541478B2, “Coumarin derivative and use thereof” (Takeda Pharmaceutical Company Limited, priority 2004, dated 2009)

Experiments:
[1] = Oral absorbability: blood level of Compound X after oral administration to rabbits; format: in vivo; settings: male New Zealand white rabbits (n=3), 0.5% methylcellulose suspension, 10 mg/kg in terms of Compound X, blood level of Compound X measured
Experimental: [Method] Male New Zealand white rabbits (n=3) were forced to take Compound A, B or X orally (0.5% suspension in methylcellulose, the dose was 10 mg/kg in terms of Compound X). A blood level of Compound X was measured with time to determine the maximum blood level (Cmax) and time required for reaching the maximum blood level (Tmax). Compound X:(2E)-3-{3-[7-chloro-3-(2-{[4-fluoro-2-(trifluoromethyl)phenyl]amino}-2-oxoethyl)-6-methyl-2-oxo-2H-chromen-4yl]phenyl}acrylic acid described in International Publication WO02/06264.

[2] = target: T1, mouse abdominal macrophage microsome ACAT (Mus musculus, UniProt Q61263); test: ACAT inhibitory activity (3H-oleyl-CoA, cholesteryl ester formation); format: biochemical; settings: microsome from thioglycolate-stimulated C57BL6J mouse macrophage; pre-incubated 37° C. 10 minutes, reaction 37° C. 20 minutes; read-out: IC50 (ACAT inhibiting rate 50%)
T1 construct: then ultracentrifuged (4° C., 50,000 rpm, 90 minutes) to prepare a microsome; from tissue; host or cells: abdominal (peritoneal) macrophages of thioglycolate-stimulated C57BL6J mice, cultured 24 h with rabbit beta-VLDL; microsomal fraction
T1 sequence (Q61263 1-540): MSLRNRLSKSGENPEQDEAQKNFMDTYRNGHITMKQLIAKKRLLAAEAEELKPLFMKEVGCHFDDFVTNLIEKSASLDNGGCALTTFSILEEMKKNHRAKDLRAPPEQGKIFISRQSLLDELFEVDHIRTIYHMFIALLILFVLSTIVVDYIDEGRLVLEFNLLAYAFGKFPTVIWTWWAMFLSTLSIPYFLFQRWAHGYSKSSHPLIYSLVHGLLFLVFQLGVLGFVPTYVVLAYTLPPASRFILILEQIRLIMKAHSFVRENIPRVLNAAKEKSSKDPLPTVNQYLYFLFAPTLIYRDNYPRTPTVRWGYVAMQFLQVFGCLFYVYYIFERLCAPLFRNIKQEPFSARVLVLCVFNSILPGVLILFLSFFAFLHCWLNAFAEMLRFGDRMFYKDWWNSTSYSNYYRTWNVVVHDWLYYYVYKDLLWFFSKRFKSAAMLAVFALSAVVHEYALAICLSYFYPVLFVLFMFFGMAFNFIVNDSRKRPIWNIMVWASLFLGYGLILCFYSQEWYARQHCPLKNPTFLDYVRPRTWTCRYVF
Experimental: According to the method of Hakamada et al. (Experimental Medicine Supplement vol. 14, No. 12, Circulation Research Protocol, p, 49-52, 1996), an abdominal macrophage was taken from a thioglycolate-stimulated C57BL6J mouse and cultured for 24 hours in a RPMI 1640-25 mM HEPES (pH7.0) medium containing rabbit β-very low density lipoprotein (β-VLDL, 150 μg cholesterol/ml) which had been prepared by the method of Ishii et al. (Ishii I et al., Arterioscler, Thromb., 12, 1139-1145, 1992). The abdominal macrophage was then collected by centrifugation (4° C., 1.000 rpm, 5 minutes) and sonicated. The sonicated liquid was centrifuged (4° C., 5000 rpm, 15 minutes) and then ultracentrifuged (4° C., 50,000 rpm, 90 minutes) to prepare a microsome. The microsome thus obtained was used for measuring ACAT inhibitory activity of a test compound as mouse abdominal macrophage microsome ACAT.
A mixture of a test compound, cholesterol-albumin-containing-Tris-HCL buffer (pH 7.5) and mouse abdominal macrophage microsome ACAT was pre-incubated at 37° C. for 10 minutes, and ^3H-oleyl-CoA was added to react at 37° C. for 20 minutes. […] The extract was subjected to silica gel thin chromatography (petroleum ether:diethyl ether:acetic acid=9:1:0.1 v/v), and the resulting ^3H-CE fraction was measured with a scintillation counter. […]

Substance: monocalcium bis((2E)-3-[3-[7-chloro-3-(2-[[4-fluoro-2-(trifluoromethyl)phenyl]amino]-2-oxoethyl)-6-methyl-2-oxo-2H-chromen-4-yl]phenyl]acrylate) trihydrate [Compound A]
- Cmax (maximum blood level of Compound X) [1]: 132 ± 29 ng/mL
- Tmax (time required for reaching the maximum blood level) [1]: 40.2 ± 17.4 min
- IC50 [2]: 1.96 µM
